The record followed here is US12559505B2, “IDH mutant inhibitor and use thereof” (WIGEN BIOMEDICINE TECHNOLOGY (SHANGHAI) CO., LTD., priority 2020, dated 2026).

The structures appear in SMILES notation.

In this test the target is T1, IDH R132C (Homo sapiens, UniProt O75874, R132C).
T1 construct: expressed in transfected cells; host or cells: U87 cells
Description: Detection of 2-HG in supernatant of U87-IDH R132C cells. It is filed as cell-based. The following applies: 72 h, LC-MS-MS, vs control; for inhibition at 0.001 µM: 1 nM compound, read-out: Inhibition rate of compounds on 2-HG in the supernatant of U87-IDH R132C cells, 1 nM; for inhibition at 0.01 µM: 10 nM compound, read-out: Inhibition rate of compounds on 2-HG in the supernatant of U87-IDH R132C cells, 10 nM; for inhibition at 0.1 µM: 100 nM compound, read-out: Inhibition rate of compounds on 2-HG in the supernatant of U87-IDH R132C cells, 100 nM. The protocol:
U87 cells overexpressing the IDH R132C mutation were seeded in a 48-well plate at 50,000 cells/well. After the cells were incubated overnight for adhesion, the supernatant was removed. The cell culture media containing serially diluted compounds were added, and the cells were incubated for 72 h. After 72 h, the cultures were collected and diluted 10-fold with water, and acetonitrile was added to extract the metabolites. The 2-HG content in the cultures was analyzed by LC-MS-MS, and the percentage inhibition of compounds on 2-HG in the supernatant was calculated as compared with the control.

T1 sequence (O75874 whole entry R132C): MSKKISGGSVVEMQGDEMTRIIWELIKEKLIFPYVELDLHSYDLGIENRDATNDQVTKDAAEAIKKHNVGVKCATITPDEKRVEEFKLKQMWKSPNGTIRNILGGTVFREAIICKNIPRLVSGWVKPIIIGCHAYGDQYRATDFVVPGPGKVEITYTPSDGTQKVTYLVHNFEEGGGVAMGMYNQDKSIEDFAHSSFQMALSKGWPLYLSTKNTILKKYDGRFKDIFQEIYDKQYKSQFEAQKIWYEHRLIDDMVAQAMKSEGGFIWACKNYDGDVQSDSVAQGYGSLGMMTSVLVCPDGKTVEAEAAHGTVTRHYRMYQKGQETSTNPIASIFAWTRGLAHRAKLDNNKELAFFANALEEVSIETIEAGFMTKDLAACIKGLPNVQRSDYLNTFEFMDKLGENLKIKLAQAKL

As to `C=CC(=O)N1CCN([C@H](CC23CC(C2)C3)c2ccc([C@H](C)Nc3ncc4c(n3)N(CC)C(=O)NC4)cc2)CC1` [Compound 70-2], the inhibition at 0.001 µM is 60 to 90%, the inhibition at 0.01 µM lay in the range of 60 to 90% and the inhibition at 0.1 µM is above 90%.
For the compound `C=CC(=O)N1CC2(C1)CN(C(CC1(C)CC1)c1ccc([C@H](C)Nc3ncc4c(n3)N(CC)C(=O)NC4)cc1)C2` (stereo partly drawn) [Compound 71], the inhibition at 0.001 µM was in the range of 30 to 60%, the inhibition at 0.01 µM was above 90% and the inhibition at 0.1 µM was above 90%.
With `C=CC(=O)N1CC2(C1)CN([C@@H](CC13CC(C1)C3)c1ccc([C@H](C)Nc3ncc4c(n3)N(CC)C(=O)NC4)cc1)C2` [Compound 72-1], the inhibition at 0.001 µM fell in the range of 60 to 90%, the inhibition at 0.01 µM was above 90% and the inhibition at 0.1 µM was above 90%.
For the compound `C=CC(=O)N1CC2(C1)CN([C@H](CC13CC(C1)C3)c1ccc([C@H](C)Nc3ncc4c(n3)N(CC)C(=O)NC4)cc1)C2` [Compound 72-2], the inhibition at 0.001 µM was in the range of 30 to 60%, the inhibition at 0.01 µM lay within 60 to 90% and the inhibition at 0.1 µM was above 90%.
Take `C=CC(=O)N1CC2(C1)CN(C(CC13CC(C1)C3)c1ccc([C@H](C)Nc3ncc4c(n3)N(CC)C(=O)NC4)cc1)C2` (stereo partly drawn) [Compound 72]: the inhibition at 0.001 µM fell in the range of 60 to 90%, the inhibition at 0.01 µM is above 90% and the inhibition at 0.1 µM was above 90%.
For `C=CC(=O)N1CCN(C(CC)c2ccc([C@H](C)Nc3ncc4c(n3)N(C(C)C)C(=O)NC4)cc2)CC1` (stereo partly drawn) [Compound 80], the inhibition at 0.001 µM lay in the range of 30 to 60%, the inhibition at 0.01 µM is 60 to 90% and the inhibition at 0.1 µM was above 90%.
Consider `C=CC(=O)N1CCN(C(CC(C)C)c2ccc([C@H](C)Nc3ncc4c(n3)N(C(C)C)C(=O)NC4)cc2)CC1` (stereo partly drawn) [Compound 81], for which the inhibition at 0.001 µM was in the range of 30 to 60%, the inhibition at 0.01 µM lay in the range of 60 to 90% and the inhibition at 0.1 µM is above 90%.
For `C=CC(=O)N1CCN(C(CC2CC2)c2ccc([C@H](C)Nc3ncc4c(n3)N(CC)C(=O)NC4)cc2)CC1` (stereo partly drawn) [Compound 82], in that order: 30 to 60%, 60 to 90% and above 90%.
For `C=CC(=O)N1CCN([C@H](CC2CC2)c2ccc([C@H](C)Nc3ncc4cnc(=O)n(C(C)C)c4n3)cc2)CC1` [Compound 85-2], in that order: 30 to 60%, 60 to 90% and above 90%.
In the case of `C=CC(=O)N1CC2(C1)CN(C(CC1CC1)c1ccc([C@H](C)Nc3ncc4cnc(=O)n(C(C)C)c4n3)cc1)C2` (stereo partly drawn) [Compound 86], the inhibition at 0.001 µM is 60 to 90%, the inhibition at 0.01 µM was 60 to 90% and the inhibition at 0.1 µM was above 90%.
With `C=CC(=O)N1CCN(C(CC2CC2)c2ccc(C3(Nc4ncc5cnc(=O)n(C(C)C)c5n4)CC3)cc2)CC1` (stereo not drawn) [Compound 106], the inhibition at 0.001 µM lay within 30 to 60%, the inhibition at 0.01 µM was 60 to 90% and the inhibition at 0.1 µM is above 90%.
Taken in the same sequence, the figures for `C=CC(=O)N1CCN(C(CC2CC2)c2ccc(C3(Nc4ncc5cnc(=O)n(CC)c5n4)CC3)cc2)CC1` (stereo not drawn) [Compound 109] were 60 to 90%, 60 to 90% and above 90%.
Taken in the same sequence, the figures for `C=CC(=O)N1CCN(C(CC)c2ccc([C@H](C)Nc3ncc4cnc(=O)n(C(C)C)c4n3)cc2)CC1` (stereo partly drawn) [Compound 112] were 60 to 90%, above 90% and above 90%.
For the compound `C=CC(=O)N1CCN(C(CC(C)C)c2ccc([C@H](C)Nc3ncc4cnc(=O)n(C(C)C)c4n3)cc2)CC1` (stereo partly drawn) [Compound 113], the inhibition at 0.001 µM was in the range of 60 to 90%, the inhibition at 0.01 µM was above 90% and the inhibition at 0.1 µM was above 90%.
For the compound `C=CC(=O)N1CCN([C@@H](CC2CC2)c2ccc([C@H](C)Nc3ncc4cnc(=O)n(CC)c4n3)cc2)CC1` [Compound 114-1], the inhibition at 0.001 µM is 60 to 90%, the inhibition at 0.01 µM was above 90% and the inhibition at 0.1 µM is above 90%.
Turning to `C=CC(=O)N1CCN([C@H](CC2CC2)c2ccc([C@H](C)Nc3ncc4cnc(=O)n(CC)c4n3)cc2)CC1` [Compound 114-2], the inhibition at 0.001 µM fell in the range of 30 to 60%, the inhibition at 0.01 µM is above 90% and the inhibition at 0.1 µM was above 90%.
On to `C=CC(=O)N1CCN(C(CC2CC2)c2ccc([C@H](C)Nc3ncc4cnc(=O)n(CC)c4n3)cc2)CC1` (stereo partly drawn) [Compound 114], for which the inhibition at 0.001 µM lay in the range of 60 to 90%, the inhibition at 0.01 µM is above 90% and the inhibition at 0.1 µM is above 90%.
Turning to `C=CC(=O)N1CCN(C(CC)c2ccc([C@H](C)Nc3ncc4cnc(=O)n(CC)c4n3)cc2)CC1` (stereo partly drawn) [Compound 115], the inhibition at 0.001 µM lay within 30 to 60%, the inhibition at 0.01 µM is above 90% and the inhibition at 0.1 µM is above 90%.
For `C=CC(=O)N1CCN([C@@H](CC)c2ccc([C@H](C)Nc3ncc4cnc(=O)n(CC)c4n3)cc2)CC1` [Compound 116-1], the inhibition at 0.001 µM fell in the range of 60 to 90%, the inhibition at 0.01 µM is above 90% and the inhibition at 0.1 µM was above 90%.
In the case of `C=CC(=O)N1CCN([C@H](CC)c2ccc([C@H](C)Nc3ncc4cnc(=O)n(CC)c4n3)cc2)CC1` [Compound 116-2], the inhibition at 0.001 µM fell in the range of 30 to 60%, the inhibition at 0.01 µM was in the range of 60 to 90% and the inhibition at 0.1 µM is above 90%.
For the compound `C=CC(=O)N1CCN(C(CC(C)C)c2ccc([C@H](C)Nc3ncc4cnc(=O)n(CC)c4n3)cc2)CC1` (stereo partly drawn) [Compound 116], the inhibition at 0.001 µM lay in the range of 60 to 90%, the inhibition at 0.01 µM is above 90% and the inhibition at 0.1 µM was above 90%.
`C=CC(=O)N1CCN(C(CC(C)(C)C)c2ccc([C@H](C)Nc3ncc4cnc(=O)n(C(C)C)c4n3)cc2)CC1` (stereo partly drawn) [Compound 124]: the inhibition at 0.001 µM was in the range of 30 to 60%, the inhibition at 0.01 µM was in the range of 60 to 90% and the inhibition at 0.1 µM was above 90%.
Taken in the same sequence, the figures for `C=CC(=O)N1CCN(C(CC2CCC2)c2ccc([C@H](C)Nc3ncc4cnc(=O)n(C(C)C)c4n3)cc2)CC1` (stereo partly drawn) [Compound 125] were 30 to 60%, 60 to 90% and above 90%.
Regarding `C=CC(=O)N1CCN(C(CC2(C)CC2)c2ccc([C@H](C)Nc3ncc4cnc(=O)n(CC)c4n3)cc2)CC1` (stereo partly drawn) [Compound 131], the inhibition at 0.001 µM is 60 to 90%, the inhibition at 0.01 µM is above 90% and the inhibition at 0.1 µM was above 90%.
Regarding `C=CC(=O)N1CCN(C(CCC)c2ccc([C@H](C)Nc3ncc4c(n3)N(CC)C(=O)OC4)cc2)CC1` (stereo partly drawn) [Compound 141], the inhibition at 0.001 µM was in the range of 30 to 60%, the inhibition at 0.01 µM was 60 to 90% and the inhibition at 0.1 µM was above 90%.
For the compound `C=CC(=O)N1CCN(C(CC2CCC2)c2ccc([C@H](C)Nc3ncc4c(n3)N(C(C)C)C(=O)OC4)cc2)CC1` (stereo partly drawn) [Compound 143], the inhibition at 0.001 µM was 30 to 60%, the inhibition at 0.01 µM was 60 to 90% and the inhibition at 0.1 µM is above 90%.
For the compound `C=CC(=O)N1CCN(C(CC(C)(C)C)c2ccc([C@H](C)Nc3ncc4c(n3)N(C(C)C)C(=O)OC4)cc2)CC1` (stereo partly drawn) [Compound 146], the inhibition at 0.001 µM lay within 30 to 60%, the inhibition at 0.01 µM fell in the range of 60 to 90% and the inhibition at 0.1 µM was above 90%.
For `C=CC(=O)N1CCN([C@@H](CC2CC2)c2ccc([C@H](C)Nc3ncc4c(n3)N(C(C)C)C(=O)OC4)cc2)CC1` [Compound 147-1], in that order: 60 to 90%, above 90% and above 90%.
For `C=CC(=O)N1CCN([C@H](CC2CC2)c2ccc([C@H](C)Nc3ncc4c(n3)N(C(C)C)C(=O)OC4)cc2)CC1` [Compound 147-2], in that order: 30 to 60%, 60 to 90% and above 90%.
Taken in the same sequence, the figures for `C=CC(=O)N1CCN(C(CC2CC2)c2ccc([C@H](C)Nc3ncc4c(n3)N(C(C)C)C(=O)OC4)cc2)CC1` (stereo partly drawn) [Compound 147] were 60 to 90%, above 90% and above 90%.
`C=CC(=O)N1CCN(C(CC2CC2)c2ccc(C3(Nc4ncc5c(n4)N(C(C)C)C(=O)OC5)CC3)cc2)CC1` (stereo not drawn) [Compound 148]: the inhibition at 0.001 µM was below 30%, the inhibition at 0.01 µM is 60 to 90% and the inhibition at 0.1 µM is above 90%.
Taken in the same sequence, the figures for `C=CC(=O)N1CCN(C(CC2CC2)c2ccc(C3(Nc4ncc5c(n4)N(CC)C(=O)OC5)CC3)cc2)CC1` (stereo not drawn) [Compound 152] were 30 to 60%, above 90% and above 90%.
Taken in the same sequence, the figures for `C=CC(=O)N1CCN(C(CC2CCC2)c2ccc(C3(Nc4ncc5c(n4)N(CC)C(=O)OC5)CC3)cc2)CC1` (stereo not drawn) [Compound 153] were 30 to 60%, 60 to 90% and above 90%.
For `C=CC(=O)N1CCN(C(CC2(C)CC2)c2ccc([C@H](C)Nc3ncc4c(n3)N(CC)C(=O)OC4)cc2)CC1` (stereo partly drawn) [Compound 156], in that order: 60 to 90%, above 90% and above 90%.
For the compound `C=CC(=O)N1CCN([C@@H](CC23CC(C2)C3)c2ccc([C@H](C)Nc3ncc4c(n3)N(CC)C(=O)OC4)cc2)CC1` [Compound 157-1], the inhibition at 0.001 µM lay in the range of 60 to 90%, the inhibition at 0.01 µM is above 90% and the inhibition at 0.1 µM is above 90%.
